Test results: patent US4009273A, “Substituted 10,11-dihydro-5,10-imino-[5H] dibenzo (a,d)-cycloheptene” (priority 1972, dated 1977)

Legend:
[1] = tested on: reserpine ptosis of the eyelid; assay: Antidepressant activity: antagonism of reserpine eyelid ptosis; type: in vivo, rats; conditions: 1 h before 1 mg/kg reserpine
Description: The antidepressant activity was determined by antagonism exercised by the compounds against the depressant activity of reserpine and this effect was determined by ptosis of the eyelid test codified by Rubin [J. Pharm. Exp. Ther., Vol. 120 (1957), p. 125]. The eyelid ptosis test is used to make a quantitative evaluation of the condition of the animal, but the antagonism exercised equally against the neuro depressive symptoms of reserpine; immobility, adynamia, hypothermia, myosis, etc. The reading was effected every hour for 6 hours after intraperitoneal injection of 1 mg/kg of reserpine to groups of rats who had one hour previously received intraperitoneally a variable dose of the test compounds. The ptosis provoked by the reserpine injection was diminished by the previous injection of the test compounds, all the more so at the elevated doses. The results were expressed as a percentage of protection compared to controls which received only reserpine and are reported in Table IV.

[2] = tested on: DOPA; assay: Potentialization of DOPA; type: in vivo, mice (male); conditions: 1 h before 50 mg/kg DOPA
Description: In this test, DOPA [racemic β-(3,4-dihydroxyphenyl)-alanine] was administered to mice pretreated with 1-isonicotinoyl-2-isopropyl-hydrazine18 hours before the test which product caused the following symptoms: hypertonicity, agitation, crying, aggressiveness, salivation and exophthalmia. The administration of an antidepressant one hour before the DOPA injection potentializes the intensity of the effects.
Male mice weighing between 18 to 22 g received intraperitoneally 50 mg/kg of 1-isonicotinoyl-2-isopropyl-hydrazine and 18 hours later the test product intraperitoneally in aqueous solution in increasing doses and 1 hour later received an intraperitoneal injection of 50 mg/kg of DOPA. The different effects were evaluated 15 and 30 minutes after the DOPA injection and each symptom was evaluated for each animal on a scale from 0 to 3 and the evaluations for each dose was totaled. The totals are reported in Table III as a percent of the total of control animals.

[3] = Acute toxicity; conditions: mouse, in vivo, ip, Swiss mice, observed for a week
Description: The acute toxicity was determined on groups of Swiss mice weighing 18 to 22 g and the test products were administered intraperitoneally in increasing doses and the animals were kept under observation for a week.

[4] = tested on: amytal sleeping time; assay: Potentialization of sleeping time (amytal); type: in vivo, mice (female); conditions: 1 h before 80 mg/kg amytal i.v.
Description: The potentialization of sleeping time was determined with a test using amytal [5-ethyl-5-isoamyl-barbituric acid] in which groups of female mice weighing between 18 and 22 g were kept at 25° C for the duration of the test. The test products were administered intraperitoneally at different doses one hour before intraveinous injection of 80 mg/kg of amytal and the sleeping time was noted which is the time while the reflux of straightening in the mice was negative.

| Structure (SMILES) | % Protection ([1]; 2 mg/Kg i.p.) | % Protection ([1]; 10 mg/Kg i.p.) | % Protection ([1]; 20 mg/Kg i.p.) | % Protection ([1]; 50 mg/Kg i.p.) | total symptom score as percent of the total of control animals ([2]; 10 mg/Kg i.p.) | total symptom score as percent of the total of control animals ([2]; 20 mg/Kg i.p.) | total symptom score as percent of the total of control animals ([2]; 50 mg/Kg i.p.) | LD50 at 168 h [3] | average sleeping time ([4]; 5 mg/Kg i.p.) | average sleeping time ([4]; 10 mg/Kg i.p.) | average sleeping time ([4]; 20 mg/Kg i.p.) | average sleeping time ([4]; 50 mg/Kg i.p.) |
| --- | --- | --- | --- | --- | --- | --- | --- | --- | --- | --- | --- | --- |
| CN(C)CCN1C2Cc3ccccc3C1c1ccccc12 (stereo not drawn) [Example 29, 12-(2'-dimethylaminoethyl)-10,11-dihydro-5,10-imino-[5H]-dibenzo (a,d) cycloheptene dl] | 9% | 40% | 39% | 66% | 81% | 101% | 177% | ~180 mg/kg | – | – | – | – |
| NCCN1C2Cc3ccccc3C1c1ccccc12 (stereo not drawn) [Example 30, 12-(2'-aminoethyl)-10,11-dihydro-5,10-imino-[5H]-dibenzo (a,d) cycloheptene dl] | 18% | 38% | 69% | 74% | 113% | 150% | – | ~150 mg/kg | 46.3 min | 38.1 min | 64.1 min | 89.0 min |
